Where a name gives a salt, the structure may show the parent alone. Read-outs that look alike come from different tables or passages of the source.
What was measured:
wt LUJV = format: cell-based, Lujo virus
rLUJV/ZsG = test: microbe, parasite or virus in culture; format: cell-based, Lujo virus; conditions: for activity at 0.05 µM / activity at 0.5 µM / activity at 5 µM: Huh-7, read-out: Relative ZsG (%) Mean
in vitro = conditions: human; for CC50: CC50 (50% cell cytotoxicity concentration)
Huh7 cells = conditions: for CC50: human
JUNV [1] = conditions: cited from earlier work
LASV [2] = conditions: read-out: EC50 for LASV inhibition; cited from earlier work
JUNV [3] = conditions: read-out: EC50 reported for JUNV; cited from earlier work
LASV [4] = conditions: read-out: EC50 reported for LASV; cited from earlier work
[5] = Mammarenavirus lujoense, Huh-7, read-out: EC50 (concentration inhibiting ZsG expression by 50%)
[6] = Mammarenavirus lujoense, 500 nM
[7] = Mammarenavirus lujoense, 5000 nM
[8] = read-out: EC50 (concentration inhibiting ZsG expression by 50%)

Row | Compound | EC50 (rLUJV/ZsG; [5]) | activity at 0.05 µM (rLUJV/ZsG; Mammarenavirus lujoense, 50 nM) | activity at 0.5 µM (rLUJV/ZsG; [6]) | activity at 5 µM (rLUJV/ZsG; [7]) | EC50 (rLUJV/ZsG; [8]) | viability at 0.05 µM (in vitro) | viability at 0.5 µM (in vitro) | viability at 5 µM (in vitro) | CC50 (in vitro) | SI (selectivity index, CC50 divided by EC50) (rLUJV/ZsG) | CC50 (Huh7 cells) | Relative ZsG (%) Mean (rLUJV/ZsG; 50 nM) | Relative ZsG (%) Mean (rLUJV/ZsG; 500 nM) | Relative ZsG (%) Mean (rLUJV/ZsG; 5000 nM) | Cell Viability (%) Mean (Huh7 cells; 50 nM) | Cell Viability (%) Mean (Huh7 cells; 500 nM) | Cell Viability (%) Mean (Huh7 cells; 5000 nM) | other results
1 | Nc1ccn([C@@H]2O[C@H](CO)[C@@H](O)[C@H]2F)c(=O)n1 [2′-deoxy-2′-fluorocytidine (2-dFC), 2′-deoxy-2′-fluorocytidine] | 540 ± 210 nM | 90% | 27% | 2% | 533 ± 205 nM | 117% | 98% | 105% | > 50000 nM | – | – | – | – | – | – | – | – | reduction of wt LUJV viral titers (wt LUJV): approximately 4 logs; viability (in vitro): > 75%
2 | NCC(=O)Nc1ccc(-n2nc(C(F)(F)F)cc2-c2ccc3c(ccc4ccccc43)c2)cc1 [AR-12] | 1200 nM | 74% | 54% | 2% | 1220 ± 444 nM | 129% | 115% | 1% | 5500 ± 1700 nM | 4.5 | 5520 ± 1670 nM | – | – | – | – | – | – | –
3 | CC[C@H](CC#N)OC(=O)N[C@@H](C)c1cccc(NC(=O)Nc2ccc(-c3cnco3)c(OC)c2)c1 [AVN-944] | 200 ± 90 nM | 43% | 4% | 1% | 201 ± 89 nM | 103% | 97% | 64% | > 12500 nM | – | – | – | – | – | – | – | – | reduction of wt LUJV viral titers (wt LUJV): approximately 4 logs; reduction of JUNV titers (JUNV [1]): > 90%; viability (in vitro): > 75%
4 | CN(C)C/C=C/C(=O)Nc1cc2c(Nc3ccc(F)c(Cl)c3)ncnc2cc1O[C@H]1CCOC1 [Afatinib] | 2260 ± 730 nM | 76% | 74% | 2% | 2260 ± 734 nM | 126% | 136% | 60% | 7640 ± 700 nM | 3.4 | 7640 ± 699 nM | – | – | – | – | – | – | –
5 | Cc1cccc(/C=N/Nc2cc(N3CCOCC3)nc(OCCc3ccccn3)n2)c1 [Apilimod] | 1440 ± 600 nM | 91% | 45% | 24% | 1440 ± 637 nM | 130% | 115% | 80% | 14400 ± 3240 nM | – | – | – | – | – | – | – | – | reduction of wt LUJV viral titers (wt LUJV): approximately 4 logs; EC50 (LASV [2]): 50 nM; viability (in vitro): > 75%
6 | O=C(NCCCNc1nc(Nc2cccc(NC(=O)N3CCCC3)c2)ncc1I)c1cccs1 [BX-795] | 600 ± 270 nM | 80% | 41% | 9% | 598 ± 274 nM | 128% | 105% | 60% | 9910 ± 1090 nM | – | 9910 ± 1090 nM | – | – | – | – | – | – | reduction of wt LUJV viral titers (wt LUJV): approximately 4 logs; viability (in vitro): > 75%
7 | Cc1c(-c2ccc(O)cc2)n(Cc2ccc(OCCN3CCCCCC3)cc2)c2ccc(O)cc12 [Bazedoxifene HCL] | 1720 ± 790 nM | 110% | 103% | 2% | 1720 ± 481 nM | 141% | 147% | 84% | 6680 ± 2080 nM | 3.9 | 6680 ± 2080 nM | – | – | – | – | – | – | –
8 | Cc1c(-c2ccc(-c3ccccc3F)cc2)nc2ccc(F)cc2c1C(=O)O [Brequinar] | 110 ± 20 nM | 27% | 2% | 2% | 109 ± 15 nM | 113% | 85% | 67% | > 12500 nM | – | – | – | – | – | – | – | – | reduction of wt LUJV viral titers (wt LUJV): approximately 4 logs; viability (in vitro): > 75%
9 | NC(=O)c1nc(F)c[nH]c1=O [Favipiravir (T-705), Favipiravir] | 2950 ± 690 nM | 94% | 95% | 22% | 2950 ± 693 nM | 101% | 104% | 96% | > 50000 nM | – | – | – | – | – | – | – | – | reduction of wt LUJV viral titers (wt LUJV): approximately 4 logs; viability (in vitro): > 75%
10 | COc1c(C)c2c(c(O)c1C/C=C(\C)CCC(=O)O)C(=O)OC2 [Mycophenolic acid (MPA), Mycophenolic acid] | 240 ± 100 nM | 72% | 7% | 2% | 238 ± 97 nM | 132% | 100% | 48% | 2000 ± 400 nM | 8.6 | 2040 nM | – | – | – | – | – | – | –
11 | O=C(Nc1ccc([N+](=O)[O-])cc1Cl)c1cc(Cl)ccc1O [Niclosamide] | 90 nM | 30% | 2% | 2% | 85 ± 29 nM | 77% | 2% | 1% | 270 nM | 3.2 | 272 ± 34 nM | – | – | – | – | – | – | EC50 (LASV [2]): 80 nM
12 | COC1=CC(c2cc3ccccc3[nH]2)=N/C1=C\c1[nH]c(C)cc1C [Obatoclax] | 360 ± 100 nM | 36% | 4% | 10% | 355 ± 105 nM | 130% | 25% | 2% | 1500 ± 330 nM | 4.2 | 1500 ± 332 nM | – | – | – | – | – | – | –
13 | Cl.Fc1ccc([C@@H]2CCNC[C@H]2COc2ccc3c(c2)OCO3)cc1 [Paroxetine HCl] | – | – | – | – | – | – | – | – | – | – | – | 93% | 83% | 48% | 138% | 145% | 110% | –
14 | Cc1ccc(Nc2nccc(N(C)c3ccc4c(C)n(C)nc4c3)n2)cc1S(N)(=O)=O.Cl [Pazopanib HCl] | – | – | – | – | – | – | – | – | – | – | – | 77% | 59% | 24% | 134% | 116% | 54% | –
15 | [N-]=[N+]=N[C@]1(CO)O[C@@H](n2ccc(N)nc2=O)[C@@H](O)[C@@H]1O [R09187] | – | – | – | – | – | – | – | – | – | – | – | 116% | 122% | 88% | 99% | 98% | 102% | –
16 | [N-]=[N+]=N[C@]1(CO)O[C@@H](n2ccc(N)nc2=O)[C@H](O)[C@@H]1O [R-1479] | – | – | – | – | – | – | – | – | – | – | – | 118% | 100% | 103% | 104% | 101% | 96% | –
17 | CC(C)C(=O)OC[C@H]1O[C@@H](n2ccc(N)nc2=O)[C@](C)(F)[C@@H]1OC(=O)C(C)C [R-7128] | – | – | – | – | – | – | – | – | – | – | – | 133% | 80% | 126% | 100% | 98% | 103% | –
18 | O=C(c1ccc(OCCN2CCCCC2)cc1)c1c(-c2ccc(O)cc2)sc2cc(O)ccc12 [Raloxifene (Evista), Raloxifene] | 1500 ± 793 nM | 87% | 89% | 3% | – | 139% | 136% | 86% | 9300 ± 1300 nM | 6.2 | 9300 ± 1310 nM | – | – | – | – | – | – | –
19 | NC(=O)c1ncn([C@@H]2O[C@H](CO)[C@@H](O)[C@H]2O)n1 [Ribavirin] | 11100 ± 1400 nM | 94% | 73% | 63% | – | 124% | 122% | 133% | > 50000 nM | – | – | – | – | – | – | – | – | EC50 (JUNV [3]): 18300 nM; EC50 (LASV [4]): 2470 nM
20 | COc1ccc(-n2cnc3cc(NCc4ccc(C(C)C)cc4)ccc32)cc1 [ST-193] | – | – | – | – | – | – | – | – | – | – | – | 107% | 102% | 91% | 105% | 98% | 101% | –
21 | Nc1cccc(-c2cc3c(Oc4cccc(O)c4)ncnc3[nH]2)c1 [TWS119] | – | – | – | – | – | – | – | – | – | – | – | 74% | 74% | 13% | 135% | 124% | 36% | –
22 | CC/C(=C(\c1ccccc1)c1ccc(OCCN(C)C)cc1)c1ccccc1 [Tamoxifene citrate] | 3590 ± 720 nM | 84% | 78% | 2% | 3590 ± 724 nM | 123% | 123% | 85% | 7370 ± 1040 nM | 2.1 | 7370 ± 1040 nM | – | – | – | – | – | – | –
23 | C[C@H](Cn1cnc2c(N)ncnc21)OCP(=O)(O)O [Tenofivir] | – | – | – | – | – | – | – | – | – | – | – | 114% | 138% | 96% | 101% | 100% | 100% | –
